Data taken from PMC5520944 (Cell Death & Disease, 2017).
Where a name gives a salt, the structure may show the parent alone. Read-outs that look alike come from different tables or passages of the source.

How the values were obtained:
MEF = assay: cells; set-up: species or system L929sAhFas or MEF; protection from TNF-induced cell death, percentage PI-positive nuclei by high-content imaging; conditions: Mus musculus, mTNF + BV6, inhibition of induced cell death
Description: (c,d) HT-29 and Jurkat FADD−/− cells were pretreated for 1 h with DMSO, Nec-1 or Sorafenib (concentrations as indicated) and stimulated for 6 h with 30 ng/ml hTNF, 1 μM BV6 and 30 μM zVAD (HT-29) or stimulated for 10 h with 100 ng/ml hTNF (Jurkat FADD−/−). (a-d) Data were normalized to DMSO-treated control cells and represent the mean value±S.E.M. of three independent experiments. Toxic concentrations were removed from the analysis. L929sAhFas and MEF cells were stained with Hoechst and PI and percentage PI-positive nuclei was determined using high-content image analysis (BD pathway Bioimager). For HT-29 and Jurkat FADD−/− cells, cell death was determined by PI staining and flow cytometry. […] Cell death in AML cells was determined by PI staining and flow cytometry. […] Smac mimetic BV6[34] instead of TAK1i was used as a sensitizer for testing of mouse embryonic fibroblasts (MEF) and human cell lines. […] Since Sorafenib is used to treat AML,[27] we also included two AML cell lines to investigate whether it alters the sensitivity of these cells to necroptotic stimuli (BV6 in the presence of zVAD-fmk).[34]

L929sAhFas = assay: cells; set-up: high-content necroptosis screen, percentage PI-positive nuclei as percent of DMSO plus stimulus control
Excerpt: To identify novel inhibitors or regulators of necroptosis, 500 small compounds from libraries targeting autophagy, kinases, phosphatases, proteases and redox balance were screened for their ability to block TNF-induced necroptosis in murine L929sAhFas cells. Three conditions were used to induce necroptosis in L929 cells: TNF alone, TNF+TAK1 inhibitor (TAK1i) and TNF+zVAD-fmk, a pan-caspase inhibitor. Inhibition of TAK1 or caspases sensitizes to necroptosis.[13], [32] Necroptosis, measured as the percentage of PI-positive nuclei normalized to the plate-specific DMSO control, was determined for each compound (Supplementary Figure 1A). […] After compound treatment, L929sAhFas (a) or L929 (b) cells were stimulated with mTNF (T), mTNF+Tak1i (TiT) or mTNF+zVAD (zVT) (Supplementary Figure 1A and B). (a) Cell death percentage (% PI-positive nuclei) or cell loss was calculated as percent of control (DMSO+stimulus). […] (b) Cell loss (luminescence-based readout for ATP) was calculated as percent of control (DMSO+stimulus). […] In stimulated conditions, % PI-positive nuclei was determined as % of DMSO control. Data represent mean values±S.E.M. of two independent experiments. Cells were stained with Hoechst and PI and percentage PI-positive nuclei was determined using high-content image analysis (BD pathway Bioimager). (d) L929sAhFas cells were treated with Sorafenib (concentration as indicated) for 24 h. Then, stimulus was removed, 50 cells/condition seeded and colonies counted with crystal violet staining after 10 days incubation. […] Schemes of workflow screening assays in L929 cell lines. (A) Scheme of the workflow of a high-content screening assay on L929sAhFas cells using mTNF (T) and mTNF+Tak1i ((5Z)-7-Oxozeaenol) (TiT) to induce necroptotic cell death. Nec-1 and zVAD-fmk were used as protective and sensitizing benchmarks, respectively, on all plates. (B) Scheme of the workflow of a CellTiter-Glo luminescent cell viability screening assay on L929 cells using mTNF+zVAD (zVT) to induce necroptotic cell death. Supplementary Figure S2. Z’ calculation for cell death screening assays in L929 cells. (A) Z’ calculation for cell death screening assay (Fig. 1A) in mTNF-stimulated L929sAhFas cells. (B) Z’ calculation for cell death screening assay (Fig. 1A) in L929sAhFas cells stimulated with mTNF + Taki.

CNC(=O)c1cc(Oc2ccc(NC(=O)Nc3ccc(Cl)c(C(F)(F)F)c3)cc2)ccn1 [Sorafenib tosylate]
IC50 (MEF): 2.2 ± 0.47 µM | activity at 10 µM (L929sAhFas; read-out: cell death TNF (POC)): 41.5% | activity at 10 µM (L929sAhFas; read-out: cell death TNF/Taki (POC)): 11.8%
